Data as given in patent US20140142333A1, “NOVEL ANILINE DERIVATIVES AND USE THEREOF” (NEOMICS Co, Ltd., priority 2011, published 2014).

Key:
WI-26 cells = experiment: MTT assay on normal WI-26 cells (cytotoxicity); type: cell-based; conditions: MTT assay after 48 hours; data not shown
Method: As a result, 22 compounds were primarily screened. Normal cells, that is, WI-26 cells were treated with the 22 compounds.

NCI-H460 [1] = experiment: MTT assay on lung cancer cell line NCI-H460; type: cell-based, human; conditions: 0.04 uM, 0.4 uM and 4 uM; 24, 48 and 72 hours; serum free RPMI; FIG. 6
Method: Lung cancer cell line, NCI-H460, was cultured in RPMI (HyQ RPMI-1640, Hyclone) medium of streptomycin, containing 10% fetal bovine serum and 1% penicillin for 48 hours, and transferred to a 96-well plate. 12 hours later, the medium was replaced by serum free RPMI medium, and then the cell line was treated with the compound of Formula 1 at a concentration of 0.04 uM, 0.4 uM and 4 uM. 24 hours, 48 hours, and 72 hours later, MTT assay at each concentration was performed.

NCI-H460 cells = experiment: nude mouse transplanted with NCI-H460 cells, tumor growth inhibition; type: in vivo; conditions: salt form, 50 mg/kg once a day, 27 days
Method: A nude mouse transplanted with NCI-H460 cells (human-derived lung cancer cell line) was administered with the […], through intra-abdominal cavity and intra-subcutaneous injection. Then, a growth inhibiting effect of a tumor was tested. Mice were divided into three groups such as a negative control group, and groups administered with a test material in doses of 50 and 100 mg/kg. Each group included 10 mice. The negative control group was administered with a mixture solution containing DMSO (excipient), Tween80, PEG400, and injection water, and the groups administered with the test material in doses of 50 mg/kg were administered with the inventive compound once a day, for 27 days including an autopsy day, 28 times in total (4 times for intra-abdominal cavity injection and 24 times for intra-subcutaneous injection.
During the observation period, general symptoms were observed once a day, and the body weight of an animal and the volume of a tumor were measured twice a week. On the day before autopsy, all individuals were fasted for 18 hours or more. On the day of autopsy, 0.5, 1 and 2 hours 1 after the test material was administered, from 3 mice, 3 mice and 4 mice from respective groups, blood was collected and tumor was extracted.
The collected blood was placed in an EDTA-containing tube, and centrifuged to separate plasma. The extracted tumor was weighed. Half of the plasma and the tumor were rapidly frozen by liquid nitrogen and placed in a frozen state, and the rest were fixed with 10% neutral buffered formalin solution and sent to a test client.

NCI-H460 [2] = experiment: FACS assay of apoptosis in NCI-H460; type: cell-based, human; conditions: medium containing 2% FBS; FIG. 7
Method: Lung cancer cell line, NCI-H460, was cultured in RPMI (HyQ RPMI-1640, Hyclone) of streptomycin, containing 10% fetal bovine serum, and 1% penicillin. In order to investigate the effect of the inventive compound on a cell cycle, cells were treated with the inventive compound and cultured in medium containing 2% FBS. The cells were collected and subjected to FACS assay.

With `CCOC(=O)CC(=O)Nc1ccc(C(=O)O)cc1` [P.C] the “cytotoxicity in normal WI-26 cells” value (WI-26 cells) was “no cytotoxicity”, the “cell death of lung cancer cells (MTT)” value (NCI-H460 [1]) was “cell death depending on treating time and concentration” and the “body weight of mouse vs control group” value (NCI-H460 cells; FIG. 10) was “no difference”. The “tumors observed (photograph) vs control group” value (NCI-H460 cells; FIG. 12) was “visibly significantly reduced”, the “weight of tumor vs control group” value (NCI-H460 cells; at autopsy, FIG. 11) was “significantly reduced” and the “volume of the tumor vs control group” value (NCI-H460 cells; intra-abdominal and subcutaneous injection, FIG. 9) was “significantly reduced”. For the same compound, the “apoptosis rate of cancer cells (FACS)” value (NCI-H460 [2]) was “concentration-dependently improves apoptosis rate”.
